Results published in patent publication US20180200293A1, “STABILIZED GOLD NANOPARTICLES” (priority 2014, published 2018).

What was measured:
[1] = Electron capture by AuNPs in water, muon spin resonance (μSR); conditions: degassed 0.1 M aqueous surfactant reference solution, absence of AuNPs
Excerpt: To deconstruct the complex electron-transfer reactions in water, we used a highly sensitive spectroscopic technique involving the positive muon (μ+) using the muon spin resonance (μSR) technique (18). The μSR technique is a type of spin spectroscopy that makes use of short-lived subatomic particles, muons (μ^+), which are sensitive magnetic and electronic probes of matter.
A degassed 0.1 M aqueous solution of the dissolved surfactant (bac-14) was used as a reference. […] These electrons therefore combine with positive muons or MuH2O^+ ions to form paramagnetic muonium, an ultra-light hydrogen atom (0.11H) that adds to the aromatic ring of the surfactant (FIG. 15).
The diamagnetic fraction shown in the transverse field spectra (FIG. 17) is enhanced when muons enter the AuNP solution, as compared with the reference solution containing a similar surfactant concentration and evaluated under the same experimental conditions (same sample geometry and magnetic field).
In aqueous solutions, the competition of Reactions 1-5 in the radiation track determines the muon fractions (19-21). […]
where [AuNP] is the AuNP concentration calculated to be 4.89×10^-7 M (see supplementary information) and the muon thermalization rate (10) is at least 1 ns−1.
The lower limit of the electron capture rate constant (ke) for the AuNPs, using Eq. 1, was determined to be 2×10^15 M^−1 s^−1. […]

[2] = scavenger concentrations as high as 2 M; cited from earlier work

Row | Structure (SMILES) | trapping of solvated or pre-solvated electrons [1] | electron capture rate (reported for known scavengers) [2]
1 | CCCCCCCCCCCCCC[N+](C)(C)Cc1ccccc1.[Cl-] [bac-14, Benzyldimethyltetradecylammonium chloride] | unable to effectively trap the solvated or pre-solvated electrons | 
2 | O=[N+]([O-])[O-].[K+] [KNOB] |  | 1.2e+13 M⁻¹ s⁻¹
3 | CC(C)O [isopropanol] |  | 2.3e+11 M⁻¹ s⁻¹
4 | C[S+](C)[O-] [DMSO] |  | 8.1e+11 M⁻¹ s⁻¹
